Measured values published in US10847829B2, “Quinone and hydroquinone based flow battery” (President and Fellows of Harvard College, priority 2013, dated 2020).

Legend:
Cyclic voltammetry (CV) = type: physicochemical; conditions: about 1 mM in 1M sulfuric acid in water
Procedure: [drawing 47] (concentration about 1 mM in 1M sulfuric acid in water) was studied by cyclic voltammetry (CV).
[drawing 48] (concentration about 1 mM in 1M sulfuric acid in water) was studied by CV.
[drawing 50] (concentration about 1 mM in 1M sulfuric acid in water) was studied by CV.
[drawing 53] (concentration about 1 mM in 1M sulfuric acid in water) was studied by CV.

Solubility = type: physicochemical; conditions: pH 0

Compound | redox peaks location, higher-potential set (Cyclic voltammetry (CV)) [V] | redox peaks location, lower-potential set (Cyclic voltammetry (CV)) [V] | solubility (Solubility) [M]
O=C1c2ccccc2C(=O)c2c1cc(S(=O)(=O)O)c(O)c2O [Example 3, 1,2-dihydroxy-9,10-anthraquinone-3-sulfonic acid] | ~1.3 | ~0.10 | –
9,10-anthraquinone-2,7-disulfonate [Scheme 1 ID 1] | – | – | ~1
O=C1c2ccccc2C(=O)c2c(O)c(S(=O)(=O)O)cc(O)c21 [Example 2, 1,4-dihydroxy-9,10-anthraquinone-3-sulfonic acid] | ~1.08 | ~0.11 | –
O=C1c2ccccc2C(=O)c2c(O)c(SCCS(=O)(=O)O)c(SCCS(=O)(=O)O)c(O)c21 [Example 6, 2,2′-((1,4-dihydroxy-9,10-dioxo-9,10-dihydroanthracene-2,3-diyl)bis(sulfanediyl))bis(ethane-1-sulfonic acid)] | ~1.08 | ~0.11 | –
